Experimental data published in patent US20120093947A1, “METHOD OF TREATING REACTIVE AIRWAY DISEASE” (UNITED STATES DEPARTMENT OF VETERANS AFFAIRS, priority 2009, published 2012).
Each block holds one molecule with its values, some of them ahead of it.

Assays:
MPO = MPO (Homo sapiens, UniProt P05164); experiment: Oxidation of β2-agonists by MPO/H2O2, spectrophotometric ΔA315; format: biochemical; set-up: Myeloperoxidase (MPO) from human leucocytes (lyophilized powder); purchased Axxora, LLC (San Diego, Calif.); host or cells: human leucocytes (natural source); settings: 200 mU/mL MPO
Experimental: (§1) Spectrophotometric Measurements. Spectra are measured using an Agilent diode array spectrophotometer model 8453 (Agilent Technologies, Inc., Santa Clara, Calif.). Oxidation of β2-agonists is studied by measuring absorption spectra at designated time points following reaction starts. Samples are prepared in 50 mM acetate buffer (pH 5.0), 50 and 100 mM phosphate buffers (pH 7.0 and 8.0) and 100 mM Tris/HCl (pH 9.19). All buffers contain DTPA (100 and 200 μM) and measurements are performed at an ambient temperature of 20° C. The reaction is started by the addition of a small aliquot of H2O2 (2, 5 or 10 μL), or glucose oxidase (1 μL), if glucose/glucose oxidase was used to generate H2O2, to a sample containing a studied compound, peroxidase and, if required, an inhibiting co-factor. Time course measurements are carried out following changes in absorbance at 315 nm in 15 second intervals versus absorbance at 800 nm, where none of the compounds absorb. The 315 nm wavelength is chosen because β2-agonists' oxidation products absorb intensely near 315 nm, and because it is close to the absorption maximum of tyrosine dimers.
The concentration of AscH^− in airway fluid was estimated to be near 100 μM (Id.), so we use concentrations within this physiological range. […] AscH^− affects oxidation of salbutamol and fenoterol similarly, causing delay in the net oxidation of both drugs. A315 increases after a lag period, the duration of which depends on AscH^− concentration. Net oxidation of the drugs occurs only when AscH^− is consumed. […] This is understandable given that the concentration of H2O2 was only 50 μM and the peroxide was used to oxidize both the drugs and AscH^−. […] The proposed mechanisms of inhibition are reactions A and B, shown below, which reveal that recovery of the drug occurs at the expense of AscH^−, which is oxidized to the ascorbate radical (A^•−).
[…]. The extent of oxidation is expressed as ΔA315±SE versus control (in %) during 22 minutes of reaction at 20° C. Values are the mean of at least duplicate determinations.

LPO [1] = target: T1, LPO (Bos taurus, UniProt P80025); experiment: Oxidation of β2-agonists by LPO/H2O2 (glucose/glucose oxidase), spectrophotometric ΔA315; format: biochemical, bovine; settings: 1 mM glucose/0.2 μg/mL glucose oxidase, pH 7.0, 30 min, % of control; for Amount of metabolite formed ΔA315 (%) Fenoterol: 50 μM fenoterol, 158 nM LPO; for Amount of metabolite formed ΔA315 (%) Salbutamol: 100 μM salbutamol, 216 nM LPO
T1 construct: Lactoperoxidase (LPO) from bovine milk (EC 1.11.1.7); purchased Sigma-Aldrich Co. (St. Louis, Mo.); host or cells: bovine milk (natural source)
Experimental: as §1
In certain experiments, oxidation of β2-agonists by peroxidases is carried out using H2O2 generated by the reaction of glucose (1 mM) with glucose oxidase (0.2 μg/mL). The rate of H2O2 generation in these systems was estimated based on the rate of oxidation of ABTS (1 mM) to the green ABTS radical cation (ABTS^•+) by HRP, at increasing concentrations of the enzyme. Concentrations of glucose and glucose oxidase are the same as those used in experiments with β2-agonists. The plot of the rate of ABTS^•+ oxidation at 420 nm (determined from the linear portion of kinetic runs) versus [HRP] is a curve, which plateaus above a certain threshold value [HRP]. The mean value of the rate from the plateau region (dA420/dt=ε420×d[ABTS^•+]/dt) is taken as the rate at which all H2O2 produced glucose/glucose was immediately used up by the enzyme to oxidize ABTS. Calculations are performed using […] (ABTS^•+ of 3.6×10^4 M^−1 cm^−1) (Childs et al. (1975) Biochem. […].
H2O2 is generated by 1 mM glucose and 0.2 μg/mL glucose oxidase. Oxidation of 50 μM fenoterol and 100 μM salbutamol is carried out in 0.1 M potassium phosphate buffer (pH 7.0) containing 0.1 mM DTPA in the presence of LPO (158 nM LPO for fenoterol and 216 nM for salbutamol). The extent of inhibition is determined by measuring ΔA315 during 30 minutes of reaction and is expressed as % of control (mean±SE from at least two determinations).

LPO [2] = target: T1, LPO; experiment: Nitration of salbutamol by LPO/H2O2/NO2−, A410; format: biochemical, bovine
Experimental: Spectrophotometric Measurements. Spectra are measured using an Agilent diode array spectrophotometer model 8453 (Agilent Technologies, Inc., Santa Clara, Calif.). Nitration of salbutamol is studied by measuring absorption spectra at designated time points following the start of the reaction. Samples are prepared in 100 mM phosphate buffers (pH 7.0). All buffers contained DTPA (100 μM) or are pretreated with Chelex-100 before use, and measurements are performed at ambient temperature of 20° C. Typically, the reaction is started by the addition of a small aliquot of H2O2 or the desired peroxidase. Time course measurements are carried out following changes in absorbance at 410 nm in 30 second intervals versus absorbance at 800 nm, where none of the compounds absorb.
Ascorbate (AscH^−) is an effective natural antioxidant protecting airways from oxidative injury. Cross et al., (1994) Environ. Health Perspect. 102 (suppl. 10):185-191. Its concentration in the respiratory tract lining fluid is estimated to be near 100 μM (Id.). We examine the effect of AscH^− on nitration of 100 μM salbutamol by 67 nM LPO, 4 mM H2O2, and 3.5 mM of NaNO2 by measuring absorption at 410 nm. […] The duration of the lag period depends on AscH^− concentration. […] See, e.g., Reszka et al. (1999) Free Radic. Biol. & Med. 26:669-678.
As noted earlier, methimazole is an antithyroid drug, an effective inhibitor of LPO activity. 100 μM of salbutamol is reacted with 73 nM LPO, 3.5 mM NaNO2, and 4 mM H2O2 at pH buffer 7.0 in the presence of 0, 27, 55, and 109 μM methimazole (shown in FIG. 9, section A, traces a-d, respectively). Traces c and d also indicate by arrow when additional LPO is added to the system. […] In contrast to effects exerted by AscH^− or SCN^−, methimazole-dependent inhibition is permanent and is probably due to inactivation of the enzyme, since a second dose of LPO reactivates the process (FIG. 9, section A, trace c).
Dapsone, an anti-inflammatory and anti-leprotic agent, is a potent inhibitor of LPO and MPO. See, e.g., Kettle et al. (1991) Biochem. Pharmacol. 41(10):1485-1492; Bozeman et al. (1992) Biochem. Pharmacol. 44(2):553-563. 97 μM of salbutamol is reacted with 65 nM LPO, 3.4 mM NaNO2, and 4 mM H2O2 at pH buffer 7.0 in the presence of 0, 2.5, 5, 10, 50, and 100 μM dapsone (shown in FIG. 10, traces a-f, respectively). The arrows in traces d and e of FIG. 10 indicate where additional LPO is added to the system. […] Dapsone at 50 μM inhibited nitration by approximately 86%. Given the high concentrations of NaNO2 and H2O2 used in this system, dapsone appears to be a potent blocker of nitration.
The extent of nitration is expressed as a change in ΔA410 versus control (dapsone omitted) taken as 100% after 10, 30, and 60 minute reactions for LPO, MPO, and EPO nitrating systems, respectively. Results equal the means±SE of at least two measurements. In the LPO system, 100 μM of salbutamol, 3.4 mM of NaNO2, 4 mM of H2O2, and 65 nM of LPO is used. In the MPO system, 50 μM of salbutamol, 5.0 mM of NaNO2, 5 mM of H2O2, and 0.2 U/mL of MPO is used. In the EPO system, 50 μM of salbutamol, 5 mM of NaNO2, 2 mM of H2O2, and 0.075 U/mL of EPO is used. All reactions were carried out in pH 7.0 phosphate buffer containing DMSO (5% v/v). The term “nitrophenols” includes nitrosalbutamol (N-Sal) and salbutamol-derived nitrophenol (N—ArOH).

[3] = inhibitor 0.1 mM, listed as L-methionine
[4] = inhibitor 1 mM, listed as azide
[5] = inhibitor 0.1 mM, listed as thiocyanate

MPO, sequence (P05164 279-745 limits assumed): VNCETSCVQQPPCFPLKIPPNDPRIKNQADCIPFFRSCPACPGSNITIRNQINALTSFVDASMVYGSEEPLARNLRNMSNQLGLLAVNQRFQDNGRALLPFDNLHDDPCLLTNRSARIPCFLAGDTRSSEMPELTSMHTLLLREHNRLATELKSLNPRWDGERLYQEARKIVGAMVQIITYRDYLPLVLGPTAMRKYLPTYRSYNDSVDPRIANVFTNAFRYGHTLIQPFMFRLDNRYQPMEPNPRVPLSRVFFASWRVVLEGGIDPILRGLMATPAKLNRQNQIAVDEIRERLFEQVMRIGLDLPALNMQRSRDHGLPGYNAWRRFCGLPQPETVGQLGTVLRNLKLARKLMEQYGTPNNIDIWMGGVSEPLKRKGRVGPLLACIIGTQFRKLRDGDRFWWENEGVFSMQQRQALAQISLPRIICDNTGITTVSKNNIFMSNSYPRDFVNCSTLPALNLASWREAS
MPO, sequence (P05164 165-273 limits assumed): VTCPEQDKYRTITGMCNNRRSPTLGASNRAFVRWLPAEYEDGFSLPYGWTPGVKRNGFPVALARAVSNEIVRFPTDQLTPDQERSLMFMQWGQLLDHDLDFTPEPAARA

Molecule: N[C@@H](CCC(=O)N[C@@H](CS)C(=O)NCC(=O)O)C(=O)O [GSH, glutathione]
- ΔA315 (%) Fenoterol, extent of oxidation versus control (MPO; 100 μM fenoterol, 50 μM H2O2, pH 7.0, 30 min, co-factor 0.1 mM): 43.3 ± 14.5%
- ΔA315 (%) Salbutamol, extent of oxidation versus control (MPO; 100 μM salbutamol, 50 μM H2O2, pH 7.0, 30 min, co-factor 0.1 mM): 62.0 ± 17.3%

Molecule: [N-]=[N+]=[N-].[Na+] [NaN3]
- ΔA315 (%) Fenoterol, extent of oxidation versus control (MPO; 1 mM fenoterol, 50 μM H2O2, pH 7.0, 22 min, 20° C., co-factor 1 mM): 17.9 ± 4.2%
- ΔA315 (%) Salbutamol, extent of oxidation versus control (MPO; 1 mM salbutamol, 50 μM H2O2, pH 7.0, 22 min, 20° C., co-factor 1 mM): 6.6 ± 1.3%
- Amount of metabolite formed ΔA315 (%) Fenoterol (LPO [1]; inhibitor 1 mM): 45.5 ± 3.9%
- Amount of metabolite formed ΔA315 (%) Fenoterol (LPO [1]; [4]): strongly inhibited
- Amount of metabolite formed ΔA315 (%) Salbutamol (LPO [1]; inhibitor 1 mM): 17.4 ± 7.1%
- Amount of metabolite formed ΔA315 (%) Salbutamol (LPO [1]; [4]): strongly inhibited

Molecule: N#C[S-].[Na+] [NaSCN]
- Nitration of salbutamol by LPO/H2O2/NO2− (A410 versus time) (LPO [2]; 50 μM NaSCN): completely prevented
- Nitration of salbutamol by LPO/H2O2/NO2− (A410 versus time) (LPO [2]; [NaSCN] <50 μM (10, 25 μM)): only transiently
- Amount of metabolite formed ΔA315 (%) Fenoterol (LPO [1]; inhibitor 0.1 mM): 22.8 ± 3.8%
- Amount of metabolite formed ΔA315 (%) Fenoterol (LPO [1]; [5]): markedly inhibit
- Amount of metabolite formed ΔA315 (%) Salbutamol (LPO [1]; inhibitor 0.1 mM): 5.5 ± 7.3%
- Amount of metabolite formed ΔA315 (%) Salbutamol (LPO [1]; [5]): markedly inhibit

Further lines, results first:

- Amount of metabolite formed ΔA315 (%) Fenoterol (LPO [1]; inhibitor 0.1 mM): 103.7 ± 2.0%
- Amount of metabolite formed ΔA315 (%) Fenoterol (LPO [1]; [3]): inactive
- Amount of metabolite formed ΔA315 (%) Fenoterol (LPO [1]; inhibitor 2 mM): 95.0 ± 3.5%
- Amount of metabolite formed ΔA315 (%) Salbutamol (LPO [1]; inhibitor 0.1 mM): 105.5 ± 16.2%
- Amount of metabolite formed ΔA315 (%) Salbutamol (LPO [1]; [3]): inactive
Molecule: CSCC[C@H](N)C(=O)O [Methionine, L-methionine]

- ΔA315 (%) Fenoterol, extent of oxidation versus control (MPO; 1 mM fenoterol, 50 μM H2O2, pH 7.0, 22 min, 20° C., co-factor 235 U/mL): 0.0%
- ΔA315 (%) Salbutamol, extent of oxidation versus control (MPO; 1 mM salbutamol, 50 μM H2O2, pH 7.0, 22 min, 20° C., co-factor 235 U/mL): 0.0%
B1: Catalase: catalase from bovine liver (EC 1.11.1.6; 2,350 U/mg) (protein, UniProt P00432 2-527, looked up)
Catalase: ADNRDPASDQMKHWKEQRAAQKPDVLTTGGGNPVGDKLNSLTVGPRGPLLVQDVVFTDEMAHFDRERIPERVVHAKGAGAFGYFEVTHDITRYSKAKVFEHIGKRTPIAVRFSTVAGESGSADTVRDPRGFAVKFYTEDGNWDLVGNNTPIFFIRDALLFPSFIHSQKRNPQTHLKDPDMVWDFWSLRPESLHQVSFLFSDRGIPDGHRHMNGYGSHTFKLVNANGEAVYCKFHYKTDQGIKNLSVEDAARLAHEDPDYGLRDLFNAIATGNYPSWTLYIQVMTFSEAEIFPFNPFDLTKVWPHGDYPLIPVGKLVLNRNPVNYFAEVEQLAFDPSNMPPGIEPSPDKMLQGRLFAYPDTHRHRLGPNYLQIPVNCPYRARVANYQRDGPMCMMDNQGGAPNYYPNSFSAPEHQPSALEHRTHFSGDVQRFNSANDDNVTQVRTFYLKVLNEEQRKRLCENIAGHLKDAQLFIQKKAVKNFSDVHPEYGSRIQALLDKYNEEKPKNAVHTYVQHGSHLSAREKANL
